Here are results for five compounds from patent US20130165472A1, “HETEROARYLS AND USES THEREOF” (MILLENNIUM PHARMACEUTICALS, INC., priority 2011, published 2013).

The assay concerns the target T1, VPS34 (Homo sapiens, UniProt Q8NEB9).
T1 construct: GST (N); host or cells: SF9 insect cells (baculovirus)
The assay is described as follows: Human VPS34 enzyme assay (Adapta TR-FRET). The format is biochemical. The settings on record: for VPS34 Percent Inhibition: at a 1.11 μM concentration. How it is done:
VPS34 (accession number GB:BC033004) was cloned into pDEST20-Thombin as N-terminal GST tagged fusion proteins using the Gateway system (Invitrogen, catalog#11804-013). The sequences were verified before recombinant protein expression using the Baculovirus Expression System with Gateway® Technology.
For expression VPS34 was infected at 1MOI in SF9 cells and harvested 72 hours post infection.
For purification, VPS34 is purified by Glutathione Sepharose 4 Fast Flow (GE Healthcare #17-5132-03) followed by HiTrap Q (GE Healthcare #17-1153-01).
Human VPS34 Enzyme Assay Method
100 mL compounds in DMSO are added to wells of a 384 well microtitre plate (Greiner 780076). At room temperature: 5 ul VPS34 reaction buffer (Invitrogen Assay Buffer Q (diluted 1 in 5 with nanopure water) plus 2 mM DTT and 2 mM MnCl2) containing ATP (20 uM, Promega) and 200 uM PI-PS substrate (Invitrogen PV5122) is added followed immediately by 5 ul VPS34 reaction buffer (as above) containing VPS34 (5 nM, Millennium Protein Sciences Group) and the mixture is incubated with shaking at room temperature for 1 hour. Then 5 ul VPS34 stop-detect mix (as per Invitrogen Adapta Assay kit (PV5009) instructions (contains kinase quench buffer, TR-FRET buffer, Adapta Eu anti-ADP antibody and Alexa Fluor 647 ADP tracer)) is added to quench the reaction. The plates are then incubated for 30 minutes at room temperature with shaking and then read on a BMG PheraStar Plus reader.
For the assay methods described above, test compound percent inhibition, at various concentrations, is calculated relative to control (DMSO and EDTA) treated samples. Compound concentration versus percent inhibition curves are fitted to generate IC50 values. One skilled in the art will appreciate that the values generated either as percentage inhibition at a single concentration or IC50 values are subject to experimental variation.
3) VPS34 is assayed using Adapta™ Universal Kinase Assay Kit (Invitrogen).

T1 sequence (Q8NEB9 whole entry): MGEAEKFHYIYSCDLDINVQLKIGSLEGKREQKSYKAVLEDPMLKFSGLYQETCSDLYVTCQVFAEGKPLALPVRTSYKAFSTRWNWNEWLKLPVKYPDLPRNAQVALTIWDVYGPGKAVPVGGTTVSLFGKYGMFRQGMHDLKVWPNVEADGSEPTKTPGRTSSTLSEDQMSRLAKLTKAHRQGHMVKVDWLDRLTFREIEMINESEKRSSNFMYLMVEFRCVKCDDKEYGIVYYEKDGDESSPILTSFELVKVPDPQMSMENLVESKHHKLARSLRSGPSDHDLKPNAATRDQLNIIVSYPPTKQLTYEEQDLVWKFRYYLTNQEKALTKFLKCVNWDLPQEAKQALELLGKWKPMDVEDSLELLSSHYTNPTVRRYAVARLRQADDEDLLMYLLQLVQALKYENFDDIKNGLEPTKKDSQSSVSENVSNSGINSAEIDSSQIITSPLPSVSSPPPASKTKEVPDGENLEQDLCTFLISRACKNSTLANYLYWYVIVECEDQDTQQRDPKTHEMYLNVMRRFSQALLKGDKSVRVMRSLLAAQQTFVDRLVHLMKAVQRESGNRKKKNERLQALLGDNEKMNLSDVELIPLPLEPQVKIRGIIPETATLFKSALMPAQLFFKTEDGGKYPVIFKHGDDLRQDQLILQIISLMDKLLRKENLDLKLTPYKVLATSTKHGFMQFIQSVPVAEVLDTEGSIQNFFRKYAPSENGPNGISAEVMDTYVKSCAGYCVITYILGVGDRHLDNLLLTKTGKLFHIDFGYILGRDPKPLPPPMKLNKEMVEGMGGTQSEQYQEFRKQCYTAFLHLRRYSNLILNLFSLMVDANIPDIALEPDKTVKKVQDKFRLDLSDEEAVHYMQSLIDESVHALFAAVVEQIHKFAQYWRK

As for `CC(=O)Nc1cc2c(ccn3c(C(N)=O)c(-c4ccc(Cl)cc4Cl)nc23)cn1` [Compound I-24, 9-acetamido-2-(2,4-dichlorophenyl)imidazo[2,1-a][2,6]naphthyridine-3-carboxamide], the IC50 is < 300 nM and the “VPS34 Percent Inhibition” value was >99.

As for `CC(=O)Nc1cc(-c2cn(-c3ccc(Cl)cc3Cl)c(-c3ccn[nH]3)n2)c(C)cn1` [Compound I-16, N-{4-[1-(2,4-dichlorophenyl)-2-(1H-pyrazol-5-yl)-1H-imidazol-4-yl]-5-methylpyridin-2-yl}acetamide], the 50% inhibitory concentration (IC50) fell in the range of 1000 to 3000 nM and the “VPS34 Percent Inhibition” value came out at 35.

As to `CC(=O)Nc1cc(-c2cn(-c3ccc(Cl)cc3Cl)c(-c3ccn[nH]3)n2)ccn1` [Compound I-10, N-{4-[1-(2,4-dichlorophenyl)-2-(1H-pyrazol-5-yl)-1H-imidazol-4-yl]pyridin-2-yl}acetamide], the IC50 was 1000 to 3000 nM and the “VPS34 Percent Inhibition” value is reported as 27.

Take `CC(=O)Nc1cc(-c2cn(-c3ccccn3)c(-c3ccccc3Cl)n2)ccn1` [Compound I-105, N-{4-[2-(2-chlorophenyl)-1-(pyridin-2-yl)-1H-imidazol-4-yl]pyridin-2-yl}acetamide]: the IC50 fell in the range of 300 to 1000 nM and the “VPS34 Percent Inhibition” value is on record as 55.

For the compound `CC(=O)Nc1cc(-c2nc(-c3ccc(Cl)cc3Cl)c(C(N)=O)[nH]2)ccn1` [Compound I-19, 2-(2-acetamidopyridin-4-yl)-4-(2,4-dichlorophenyl)-1H-imidazole-5-carboxamide], the half-maximal inhibitory concentration (IC50) was 1000 to 3000 nM and the “VPS34 Percent Inhibition” value amounted to 28.
